Tested on: chamomile (scentless chamomile, Matricaria inodora)
Assay: Test D pre-/postemergence: chamomile
Format: in vivo
Excerpt: Seeds of plant species selected from bluegrass (annual bluegrass, Poa annua), blackgrass (Alopecurus myosuroides), canarygrass (Phalaris minor), chickweed (common chickweed, Stellaria media), galium (catchweed bedstraw, Galium aparine), bromegrass, downy (downy bromegrass, Bromus tectorum), field poppy (Papaver rhoeas), field violet (Viola arvensis), foxtail, green (green foxtail, Setaria viridis), deadnettle (henbit deadnettle, Lamium amplexicaule), ryegrass, Italian (Italian ryegrass, Lolium multiflorum), kochia (Kochia scoparia), lambsquarters (Chenopodium album), oilseed rape (Brassica napus), pigweed (Amaranthus retroflexus), Russian thistle (Salsola iberica), chamomile (scentless chamomile, Matricaria inodora), speedwell (bird's-eye speedwell, Veronica persica), barley, spring (spring barley, Hordeum vulgare), wheat, spring (spring wheat, Triticum aestivum), buckwheat, wild (wild buckwheat, Polygonum convolvulus), mustard, wild (wild mustard, Sinapis arvensis), oat, wild (wild oat, Avena fatua), radish, wild (wild radish, Raphanus raphanistrum), windgrass (Apera spica-venti), barley, winter (winter barley, Hordeum vulgare), and wheat, winter (winter wheat, Triticum aestivum) were planted into a silt loam soil and treated preemergence with test chemicals formulated in a non-phytotoxic solvent mixture which included a surfactant. At the same time, these same crop and weed species were planted in pots containing the planting medium comprising spaghnum peat moss, vermiculite, wetting agent and starter nutrients and treated with postemergence applications of the test chemicals formulated in the same manner. Plants ranged in height from 2 to 18 cm (1- to 4-leaf stage).
Treated plants and controls were maintained in a controlled growth environment for 14 to 21 days after which time all species were compared to controls and visually evaluated. Plant response ratings, summarized in Table D, are based on a scale of 0 to 100 where 0 is no effect and 100 is complete control. A dash (-) response means no test result.

[1] = Postemergence, 31 g ai/ha, scale 0 to 100 (0 no effect, 100 complete control)
[2] = Postemergence, 62 g ai/ha, scale 0 to 100 (0 no effect, 100 complete control)
[3] = Postemergence, 125 g ai/ha, scale 0 to 100, 0 no effect, 100 complete control
[4] = Postemergence, 250 g ai/ha, scale 0 to 100 (0 no effect, 100 complete control)
[5] = Postemergence, 16 g ai/ha, scale 0 to 100

SMILES | Plant response rating: Chamomile [1] | Plant response rating: Chamomile [2] | Plant response rating: Chamomile [3] | Plant response rating: Chamomile [4] | Plant response rating, Chamomile [5] | Plant response rating, Chamomile (Preemergence, 16 g ai/ha, scale 0 to 100, 0 no effect, 100 complete control) | Plant response rating, Chamomile (Preemergence, 31 g ai/ha, scale 0 to 100, 0 no effect, 100 complete control) | Plant response rating, Chamomile (Preemergence, 62 g ai/ha, scale 0 to 100) | Plant response rating, Chamomile (Preemergence, 125 g ai/ha, scale 0 to 100) | Plant response rating, Chamomile (Preemergence, 250 g ai/ha, scale 0 to 100)
FC(F)(F)COc1nn(-c2ccc(C(F)(F)F)cc2)nc1Cc1ccnc(C(F)(F)F)c1 [Compound 14, 4-[[5-(2,2,2-trifluoroethoxy)-2-[4-(trifluoromethyl)phenyl]-2H-1,2,3-triazol-4-yl]methyl]-2-(trifluoromethyl)pyridine] | 20 | 60 | 100 | 100 |  |  |  |  |  | 
COc1nn(-c2ccc(C(F)(F)F)cc2)nc1Cc1ccnc(C(F)(F)F)c1 [Compound 15, 4-[[5-methoxy-2-[4-(trifluoromethyl)phenyl]-2H-1,2,3-triazol-4-yl]methyl]-2-(trifluoromethyl)pyridine] | 0 | 0 | 25 | 100 | 0 |  |  |  |  | 
Cc1nn(-c2ccc(C(F)(F)F)cn2)nc1Oc1ccnc(C(F)(F)F)c1 [Compound 23] | 0 | 0 | 0 | 5 | 0 |  |  |  |  | 
Cc1nn(-c2ccc(C(F)(F)F)cn2)nc1Cc1cccc(C(F)(F)F)c1 [Compound 106] | 0 | 0 | 0 | 25 | 0 |  |  |  |  | 
Cc1nn(-c2ccc(C(F)(F)F)cc2)nc1Oc1ccnc(C(F)(F)F)c1 [Compound 120] | 25 | 40 | 80 | 90 | 10 | 0 | 10 | 20 | 100 | 100
